Experimental data published in patent US9926529B2, “Derivation of neural stem cells and dopaminergic neurons from human pluripotent stem cells” (International Stem Cell Corporation, priority 2012, dated 2018).
Structures can show the parent of a compound that is named as a salt. Where two headings read alike, the source gives them in different places.

Key:
hPSC-NSCs [1] = assay: RT-PCR expression of dopamine neuron genes in hPSC-NSCs treated with small molecule hits; type: cell-based, human; conditions: for fold induction at 2.5 µM: Homo sapiens, Neuron, 336 h
Description: (§1) The method specifically involved treating both hESC-H9-NSCs (Invitrogen) and hPSC-NSCs with Purmorphamine (2 μM) and FGF8 (100 ng/mL) in NB medium [NeuroBasal medium, 1× GlutaMAX, 1× N2/B27 Supplement (Invitrogen)] for 7 days. After 7 days of Purmorphamine and FGF8 treatment, the NSCs were dissociated with Accutase (Sigma) and plated 20,000 cells/mL into Matrigel coated 96 well plates and treated with small molecule library (Torcris 1120 Biologically Active Compounds) at 2.5 μM final concentration for two weeks (FIG. 6A). Two weeks after treatment with small molecules, all wells were visually observed and scored based on neurite density and dopamine release. For measuring neurite density, cells were fixed with 4% paraformaldehyde and phase contrast images were acquired using Cellavista Cell Imaging System (Roche Applied Science) from randomly selected fields. Neurite density was measured using the Cellavista density software image processing program. Each experimental condition was done in duplicate wells, and at least three independent experiments were conducted to acquire the final results.
(§2) Conditioned medium from the top neurite inducers (Table 1) (wells containing the highest density of neurites compare to control 0.1% DMSO treated) were collected and analyzed using a dopamine ELISA assay (Cosmo Bio). Conditioned medium was collected from samples containing 50,000 cells per well and centrifuged at 3000 RPM to remove cell debris. Supernatant was then collected and analyzed for quantitative determination of dopamine using a commercial dopamine ELISA assay kit (CusaCosmo Bio). Data analysis was performed using the microtiter plate reader (BIO-TEK Synergy 2). The results presented are from three independent experiments (n=3) and represented as mean±standard error of mean (s.e.m.) and statistical analysis was performed using the two-tailed Student's t-test with a confidence level of 95% (α=0.05) with statistical significance of P<0.05. Additionally, total RNA from each well were collected and analyze by RT-PCR for expression of TuJ1, MAP2, TH, GRK2, EN1, DAT, AADC, PAX2, NURR1, PITX3 and LMX1B from hPSC-NSCs (Table 2). […] Analysis of the ELISA data indicated the top small molecule neurite inducers produced higher levels of dopamine than control non-treated cells (1.5 ng/mL). […] The percentages of TH positive cells produced by chemical treatment with Kenpaullone (33%), Guggulsterone (35%), Kynurenic Acid (19%), Immedthridine Dihydrobromide (21%), and Dimaprit Dihydrochloride (18%) were higher than 15% of TH positive cells obtained from hPSC-NSCs differentiated for ≥1 month using a standard dopaminergic differentiation medium (BDNF 20 ng/mL, GDNF 20 ng/mL, cAMP 200 μM, Abscorbic Acid 200 μM, TGFβ3 2 ng/mL and DAPT).
Total RNA from at least triplicate samples with around 1 million cells each was isolated using either QIAsymphony automatic purification system or RNeasy Plus Mini kit, according to manufacturer's instructions (Qiagen). Total RNA was used for reverse transcription with the iScript cDNA synthesis kit (Biorad) and Px2 Thermal Cycler (Thermo Scientific). To analyze gene expression, PCR reactions were performed in duplicate using 1/25-th of the cDNA per reaction and the QuantiTect Primer Assay and Quantitest SYBR Green master mix (Qiagen). qPCR was performed using the Rotor-Gene Q (Qiagen) 5 min at 95° C., 5 s at 92° C., and 20 s at 60° C. for 37 cycles followed by melt to check the specificity of the amplicons from 50 to 99° C. raising by 1° C. each step. Relative quantification was performed against a standard curve and quantified values were normalized against the input determined by PPIG. The primers used for the analysis are listed in Supplementary Table S1. […]

hPSC-NSCs [2] = assay: Percentage of TH positive cells produced by chemical treatment; type: cell-based, human; conditions: chemical treatment 2.5 μM for two weeks
Description: as §1, §2

[3] = hPSC-NSCs primed 7 days with Purmorphamine and FGF8, small molecule 2.5 μM for two weeks, read-out: DDC (AADC) expression by RT-PCR
[4] = hPSC-NSCs primed 7 days with Purmorphamine and FGF8, small molecule 2.5 μM for two weeks, read-out: EN1 expression by RT-PCR
[5] = hPSC-NSCs primed 7 days with Purmorphamine and FGF8, small molecule 2.5 μM for two weeks, read-out: KCNJ6 expression by RT-PCR
[6] = hPSC-NSCs primed 7 days with Purmorphamine and FGF8, small molecule 2.5 μM for two weeks, read-out: MAP2 expression by RT-PCR
[7] = hPSC-NSCs primed 7 days with Purmorphamine and FGF8, small molecule 2.5 μM for two weeks, read-out: NR4A2 (NURR1) expression by RT-PCR
[8] = hPSC-NSCs primed 7 days with Purmorphamine and FGF8, small molecule 2.5 μM for two weeks, read-out: PITX3 expression by RT-PCR
[9] = hPSC-NSCs primed 7 days with Purmorphamine and FGF8, small molecule 2.5 μM for two weeks, read-out: TH1 expression by RT-PCR
[10] = hPSC-NSCs primed 7 days with Purmorphamine and FGF8, small molecule 2.5 μM for two weeks, read-out: Tubb3 expression by RT-PCR
[11] = read-out: SLC6A3 (DAT) expression by RT-PCR
[12] = hPSC-NSCs primed 7 days with Purmorphamine and FGF8, small molecule 2.5 μM for two weeks, read-out: LMX1B expression by RT-PCR
[13] = hPSC-NSCs primed 7 days with Purmorphamine and FGF8, small molecule 2.5 μM for two weeks, read-out: Pax2 expression by RT-PCR
[14] = hPSC-NSCs primed 7 days with Purmorphamine and FGF8, small molecule 2.5 μM for two weeks, read-out: SLC6A3 (DAT) expression by RT-PCR
[15] = hPSC-NSCs primed 7 days with Purmorphamine and FGF8, small molecule 2.5 μM for two weeks

CN(C)CCCSC(=N)N [Dimaprit dihydrochloride]
fold induction at 2.5 µM (hPSC-NSCs [1]; [3]): 31.9
fold induction at 2.5 µM (hPSC-NSCs [1]; [4]): 15.5
fold induction at 2.5 µM (hPSC-NSCs [1]; [5]): 0.16
fold induction at 2.5 µM (hPSC-NSCs [1]; [6]): 12.4
fold induction at 2.5 µM (hPSC-NSCs [1]; [7]): 1.87
fold induction at 2.5 µM (hPSC-NSCs [1]; [8]): 0.45
fold induction at 2.5 µM (hPSC-NSCs [1]; [9]): 9.02
fold induction at 2.5 µM (hPSC-NSCs [1]; [10]): 9.62
percentage of TH positive cells (hPSC-NSCs [2]): 18%

c1cc(Cc2cnc[nH]2)ccn1 [Immethridine dihydrobromide]
fold induction at 2.5 µM (hPSC-NSCs [1]; [11]): 33.6
fold induction at 2.5 µM (hPSC-NSCs [1]; [3]): 28.2
fold induction at 2.5 µM (hPSC-NSCs [1]; [4]): 11.8
fold induction at 2.5 µM (hPSC-NSCs [1]; [5]): 0.22
fold induction at 2.5 µM (hPSC-NSCs [1]; [12]): 7.66
fold induction at 2.5 µM (hPSC-NSCs [1]; [6]): 12.7
fold induction at 2.5 µM (hPSC-NSCs [1]; [7]): 0.52
fold induction at 2.5 µM (hPSC-NSCs [1]; [13]): 41.2
fold induction at 2.5 µM (hPSC-NSCs [1]; [9]): 9.72
fold induction at 2.5 µM (hPSC-NSCs [1]; [10]): 10.6
percentage of TH positive cells (hPSC-NSCs [2]): 21%

O=C1Cc2c([nH]c3ccc(Br)cc23)-c2ccccc2N1 [Kenpaullone]
fold induction at 2.5 µM (hPSC-NSCs [1]; [11]): 108
fold induction at 2.5 µM (hPSC-NSCs [1]; [3]): 11.1
fold induction at 2.5 µM (hPSC-NSCs [1]; [4]): 11
fold induction at 2.5 µM (hPSC-NSCs [1]; [5]): 0.12
fold induction at 2.5 µM (hPSC-NSCs [1]; [6]): 8.17
fold induction at 2.5 µM (hPSC-NSCs [1]; [7]): 0.05
fold induction at 2.5 µM (hPSC-NSCs [1]; [9]): 2.15
fold induction at 2.5 µM (hPSC-NSCs [1]; [10]): 9.61
percentage of TH positive cells (hPSC-NSCs [2]): 33%

CC1(C)NC(=O)N(c2ccc([N+](=O)[O-])c(C(F)(F)F)c2)C1=O [Nilutamide]
fold induction at 2.5 µM (hPSC-NSCs [1]; [3]): 172
fold induction at 2.5 µM (hPSC-NSCs [1]; [4]): 5.33
fold induction at 2.5 µM (hPSC-NSCs [1]; [5]): 2.1
fold induction at 2.5 µM (hPSC-NSCs [1]; [12]): 2.55
fold induction at 2.5 µM (hPSC-NSCs [1]; [6]): 10.6
fold induction at 2.5 µM (hPSC-NSCs [1]; [7]): 1.43
fold induction at 2.5 µM (hPSC-NSCs [1]; [8]): 0.27
fold induction at 2.5 µM (hPSC-NSCs [1]; [13]): 0.9
fold induction at 2.5 µM (hPSC-NSCs [1]; [14]): 2.07
fold induction at 2.5 µM (hPSC-NSCs [1]; [9]): 10.1
fold induction at 2.5 µM (hPSC-NSCs [1]; [10]): 3.81

CCN1CCC[C@H]1CNC(=O)c1c(OC)ccc(Br)c1OC [Remoxipride hydrochloride]
fold induction at 2.5 µM (hPSC-NSCs [1]; [3]): 13.8
fold induction at 2.5 µM (hPSC-NSCs [1]; [4]): 6.6
fold induction at 2.5 µM (hPSC-NSCs [1]; [5]): 0.93
fold induction at 2.5 µM (hPSC-NSCs [1]; [12]): 3.16
fold induction at 2.5 µM (hPSC-NSCs [1]; [6]): 11.5
fold induction at 2.5 µM (hPSC-NSCs [1]; [7]): 3.21
fold induction at 2.5 µM (hPSC-NSCs [1]; [8]): 0.69
fold induction at 2.5 µM (hPSC-NSCs [1]; [13]): 0.86
fold induction at 2.5 µM (hPSC-NSCs [1]; [14]): 6.41
fold induction at 2.5 µM (hPSC-NSCs [1]; [9]): 12
fold induction at 2.5 µM (hPSC-NSCs [1]; [10]): 5.73

CC1=C(/C=C/C(C)=C/C=C/C(C)=C/C(=O)O)C(C)(C)CCC1 [Retinoic acid]
fold induction at 2.5 µM (hPSC-NSCs [1]; [3]): 110
fold induction at 2.5 µM (hPSC-NSCs [1]; [4]): 12.8
fold induction at 2.5 µM (hPSC-NSCs [1]; [5]): 2.8
fold induction at 2.5 µM (hPSC-NSCs [1]; [12]): 1.25
fold induction at 2.5 µM (hPSC-NSCs [1]; [6]): 7.7
fold induction at 2.5 µM (hPSC-NSCs [1]; [7]): 153
fold induction at 2.5 µM (hPSC-NSCs [1]; [8]): 0.04
fold induction at 2.5 µM (hPSC-NSCs [1]; [13]): 0.5
fold induction at 2.5 µM (hPSC-NSCs [1]; [14]): 1.99
fold induction at 2.5 µM (hPSC-NSCs [1]; [9]): 1.99
fold induction at 2.5 µM (hPSC-NSCs [1]; [10]): 7.05

CCOC(=O)c1ncn2c1CN(C)C(=O)c1cc(N=[N+]=[N-])ccc1-2 [Ro 15-4513]
DDC (AADC) expression by RT-PCR (hPSC-NSCs [1]; [15]): 12.88
EN1 expression by RT-PCR (hPSC-NSCs [1]; [15]): 5.9
KCNJ6 (GRK2) expression by RT-PCR (hPSC-NSCs [1]; [15]): 0.09
MAP2 expression by RT-PCR (hPSC-NSCs [1]; [15]): 7.19
NR4A2 (NURR1) expression by RT-PCR (hPSC-NSCs [1]; [15]): 0.9
PITX3 expression by RT-PCR (hPSC-NSCs [1]; [15]): 0.72
SLC6A3 (DAT) expression by RT-PCR (hPSC-NSCs [1]; [15]): 0.46
TH1 expression by RT-PCR (hPSC-NSCs [1]; [15]): 8.49
Tubb3 expression by RT-PCR (hPSC-NSCs [1]; [15]): 4.9
